These results are taken from US20230303599A1, “PRODRUGS OF PHOSPHONAMIDE NUCLEOTIDE ANALOGUES AND THEIR PHARMACEUTICAL USE” (priority 2020, published 2023).

Data set [1] in a line: Cytotoxicity assay in MT-4 cells. The format is cell-based. The settings on record: human, uninfected MT-4 cells, average of at least two independent experiments, read-out: MT4 CC50. The protocol:
Compounds were tested in a high-throughput 384-well assay format for their ability to inhibit the replication of HIV-1 (IIIB) in MT-4 cells. Compounds were serially diluted (1:3) in DMSO on 384-well polypropylene plates and further diluted 200-fold into complete RPMI media (10% FBS, 1% P/S) using the Biotek Micro Flow and Labcyte ECHO acoustic dispenser. Each plate contained up to 8 test compounds, with negative (no drug) and positive (5 μM AZT) controls. MT-4 cells were pre-treated with 10 μL of either RPMI (mock-infected) or a fresh 1:250 dilution of HIV-1 IIIB concentrated virus stock. Infected and uninfected MT-4 cells were further diluted in complete RPMI media and added to each plate using a Micro Flow dispenser. After 5 days incubation in a humidified and temperature-controlled incubator (37° C.), Cell Titer Glo (Promega) was added to the assay plates and chemiluminescence read using an Envision plate-reader. EC50 values were defined as the compound concentration that causes a 50% decrease in luminescence signal and were calculated using a sigmoidal dose-response model to generate curve fits and are shown in Table 1.
Example 105: Cytotoxicity Assay in MT-4 Cells
Assays were performed as described in Example 104 except uninfected MT-4 cells were added to each well containing test compound. In addition, 10 μM puromycin was added to the last column of each assay plate to assess a base level of cytotoxicity.

The next data set has as its system HBV. As to the kind of experiment: Antiviral (HBV) assay in primary human hepatocytes (PHHs). The data set is classed as cell-based. The settings on record: Hepatitis B virus, Hepatocyte, 120 h; HBV (GTD) infected PHH, 5 days, HBV DNA in supernatant; average of at least two independent experiments. The protocol:
Example 106: Antiviral (HBV) Assay in Primary Human Hepatocytes (PHHs)
Cryopreserved PHH were thawed, recovered by centrifugation at 100 g in cryopreserved hepatocyte recovery medium (Thermo Fisher Scientific; CM7500), and plated on collagen matrix (Life Technologies; Catalog Number: R-011-K) coated T225 flasks (Corning CellBIND, Catalog Number: 3293) at a density of 25E6 live cells in 60 mls media. Cells were plated in William's E medium (Thermo Fisher Scientific; A1217601) supplemented with 3.6% hepatocyte thawing and plating supplement (Thermo Fisher Scientific, A15563), 5% fetal bovine serum (Thermo Fisher Scientific; 16000-036), 1 μM dexamethasone (Thermo Fisher Scientific, A15563), and 0.2% Torpedo antibiotic mix (Bioreclamation; Z990008). The plating medium was removed after 14 hours and the cells were subsequently cultured in maintenance medium: William's E medium supplemented with 4% hepatocyte maintenance supplement (Thermo Fisher Scientific; AI15564), 2% fetal bovine serum, 0.1μ M dexamethasone, 1.5% DMSO (Sigma-Aldrich, St. Louis, MO; D8418), and 0.2% Torpedo antibiotic mix. Approximately 24 hours after plating, PHH were infected with HepAD38-derived GTD virus at 500 viral genome equivalents per cell in PHH maintenance medium supplemented with 4% PEG 8000 (Promega, Madison, WI; V3011). Infections were allowed to proceed for 24 hours before removing the remaining extracellular virions by washing with maintenance medium three times. After allowing viral infection to take place for 3 days, the infected cells were harvested from the flasks by trypsinization (0.25X in PBS without Ca/Mg, 25 minutes) following a 4 minute 0.5X Versene (Life Technologies Catalog Number: 15040-066) treatment and two PBS washes. Trypsinized cells were inactivated in 10% FBS containing maintenance medium, centrifuged 6 minutes at 50 g, resuspended in hepatocyte maintenance medium, filtered through a 40 uM cell strainer, and adjusted to a density of 0.25E6 cells/ml. Infected cells were seeded on 384 well collagen coated plates (Greiner, Austria) at a density of 20,000 cells/well containing serially diluted compounds of the present disclosure or DMSO (0.5%) in a final volume of 80 μl. The assay plates were incubated for a period of 5 days and the antiviral activity of the test compounds were assayed by detecting the presence of HBV DNA in the culture supernatant using the QuantiGene™ 2.0 nucleic acid quantification kit (Affymetrix, Santa Clara, CA).

Data set [2] is described as follows: Cytotoxicity assay in primary human hepatocytes (PHHs). The data set is classed as cell-based. The settings on record: HBV-infected primary human hepatocytes, HBV-infected PHH, Cell Titer Glo, average of at least two independent experiments. The procedure: Example 107: Cytotoxicity Assay in Primary Human Hepatocytes (PHHs)
The HBV-infected primary human hepatocytes are seeded (20K cells/well in 80 uL of Media) in 384well collagen coated plates pre-spotted with compounds. After 5 days, 40 ul of cell supernatant is removed to quantify HBV DNA levels as described in Example 106. Then, 40 ul Cell Titer Glo Reagent (Promega Catalog Number: G7572) is added to the remaining cells and luminescence is measured on the EnVision microplate reader.

A short description of data set [3]: Kinetic solubility analysis. The data set is classed as physicochemical. The settings on record: 1× PBS, 24.2 °C, aqueous buffer, kinetic from dmso stock; pH 7.4 PBS, 1% DMSO, 24-hour incubation at ambient temperature. An outline of the steps:
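Compounds from 10 mM DMSO stocks were incubated in 0.1 N HCl or 1× PBS pH 7.4 (1.0% DMSO, 100 μM maximum theoretical) for 24 h at 24.2-27.5 °C, then vacuum filtered. Filtrates were quantified in μM by chemiluminescent nitrogen detection against a calibration curve, corrected for background nitrogen; values for adjacent ring-nitrogen compounds were raised ~25%.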

For orientation: CC50 means the concentration that lowers cell viability or growth by half. For orientation: EC50 means the concentration needed to bring the measured effect to its halfway point. Low readings indicate a more potent agent, high ones a less potent agent. One may read the solubility (kinetic) as the concentration staying in solution when a stock, usually in DMSO, is diluted into the medium.

In brackets after ≈: the same amount, converted by molar mass. Bounds are passed on as bounds.

`CCCCCCOC(=O)C(C)(C)NP(=O)(CO[C@H](C)Cn1cnc2c(N)ncnc21)NC(C)(C)C(=O)OCCCCCC` [Example 1, Dihexyl 2,2′-(((((1-(6-amino-9H-purin-9-yl)propan-2-yl)oxy)methyl)phosphoryl)bis(azanediyl))(R)-bis(2-methylpropanoate)]: the figures for the CC50 at 5 days in data set [1] and in data set [2] were 4990 nM and greater than 100 nM, respectively. This compound also displayed an EC50 with HBV of 1.96 nM. In addition, the kinetic solubility at 24 h in data set [3] was determined as 33 µg/mL (≈ 52.7 µM).
In the same order, the values of `CCC(CC)COC(=O)C(C)(C)NP(=O)(CO[C@H](C)Cn1cnc2c(N)ncnc21)NC(C)(C)C(=O)OCC(CC)CC` [Example 2, Bis(2-ethylbutyl) 2,2′-(((((1-(6-amino-9H-purin-9-yl)propan-2-yl)oxy)methyl)phosphoryl)bis(azanediyl))(R)-bis(2-methylpropanoate)] are 6090 nM, greater than 1000 nM, 0.69 nM and 65 µg/mL (≈ 104 µM).
Take `C[C@H](Cn1cnc2c(N)ncnc21)OCP(=O)(NC(C)(C)C(=O)OCCC1CCCCC1)NC(C)(C)C(=O)OCCC1CCCCC1` [Example 14, Bis(2-cyclohexylethyl) 2,2′-(((((1-(6-amino-9H-purin-9-yl)propan-2-yl)oxy)methyl)phosphoryl)bis(azanediyl))(R)-bis(2-methylpropanoate)]: the CC50 at 5 days is 3190 nM in data set [1] and greater than 100 nM in data set [2]. The same compound gave an EC50 in the data set on HBV of 2.57 nM. The same compound yielded a kinetic solubility at 24 h in data set [3] of 27 µg/mL (≈ 39.8 µM).
As for `C[C@H](Cn1cnc2c(N)ncnc21)OCP(=O)(NC(C)(C)C(=O)O[C@H]1CC[C@H](C(F)(F)F)CC1)NC(C)(C)C(=O)O[C@H]1CC[C@H](C(F)(F)F)CC1` [Example 21, Bis(trans-4-(trifluoromethyl)cyclohexyl) 2,2′-((((((R)-1-(6-amino-9H-purin-9-yl)propan-2-yl)oxy)methyl)phosphoryl)bis(azanediyl))bis(2-methylpropanoate)], the CC50 at 5 days in data set [1] is 4470 nM; in data set [2], greater than 100 nM. The same compound displayed an EC50 with HBV of 3.55 nM. This compound also gave a kinetic solubility at 24 h in data set [3] of 39 µg/mL (≈ 51.5 µM).
In the same order, the values of `CCCCCCOC(=O)C(C)(C)NP(=O)(CO[C@H](C)Cn1cnc2c(NC(=O)OCc3oc(=O)oc3C)ncnc21)NC(C)(C)C(=O)OCCCCCC` [Example 33, Dihexyl 2,2′-(((((1-(6-((((5-methyl-2-oxo-1,3-dioxol-4-yl)methoxy)carbonyl)amino)-9H-purin-9-yl)propan-2-yl)oxy)methyl)phosphoryl)bis(azanediyl))(R)-bis(2-methylpropanoate)] are 6620 nM, greater than 100 nM, 2.62 nM and 14 µg/mL (≈ 17.9 µM).
As to `CCCCCCCCOC(=O)C(C)(C)NP(=O)(CO[C@H](C)Cn1cnc2c(N)ncnc21)NC(C)(C)C(=O)OCCCCCCCC` [Example 39, Dioctyl 2,2′-(((((1-(6-amino-9H-purin-9-yl)propan-2-yl)oxy)methyl)phosphoryl)bis(azanediyl))(R)-bis(2-methylpropanoate)], the CC50 at 5 days is 7270 nM in data set [1] and greater than 100 nM in data set [2]. The same compound showed an EC50 with HBV of 4.5 nM.
For `C[C@H](Cn1cnc2c(N)ncnc21)OCP(=O)(NC(C)(C)C(=O)OCC1CCCCC1)NC(C)(C)C(=O)OCC1CCCCC1` [Example 46, Bis(cyclohexylmethyl) 2,2′-(((((1-(6-amino-9H-purin-9-yl)propan-2-yl)oxy)methyl)phosphoryl)bis(azanediyl))(R)-bis(2-methylpropanoate)], the CC50 at 5 days in data set [1] was 4160 nM; in data set [2], greater than 100 nM. In the data set on HBV, it took 2.51 nM to reach a half-maximal effect (EC50). The compound further returned a kinetic solubility at 24 h in data set [3] of less than 1 µg/mL.
`C[C@H](Cn1cnc2c(N)ncnc21)OCP(=O)(NC(C)(C)C(=O)OCC12CCC(CC1)CC2)NC(C)(C)C(=O)OCC12CCC(CC1)CC2` [Example 48, Bis(bicyclo[2.2.2]octan-1-ylmethyl) 2,2′-(((((1-(6-amino-9H-purin-9-yl)propan-2-yl)oxy)methyl)phosphoryl)bis(azanediyl))(R)-bis(2-methylpropanoate)]: the CC50 at 5 days in data set [1] is 3340 nM; in data set [2] it was greater than 100 nM. Besides, the midpoint of the response with HBV, the EC50, lay at 4.63 nM. Moreover, the kinetic solubility at 24 h in data set [3] is less than 1 µg/mL.
Consider `CCC1(CC)CC(OC(=O)C(C)(C)NP(=O)(CO[C@H](C)Cn2cnc3c(N)ncnc32)NC(C)(C)C(=O)OC2CC(CC)(CC)C2)C1` [Example 49, Bis(3,3-diethylcyclobutyl) 2,2′-(((((1-(6-amino-9H-purin-9-yl)propan-2-yl)oxy)methyl)phosphoryl)bis(azanediyl))(R)-bis(2-methylpropanoate)], for which the half-maximal cytotoxic concentration (CC50) at 5 days is 5220 nM in data set [1] and greater than 100 nM in data set [2]. Further, in the data set on HBV, the response was half-maximal at 5.45 nM (EC50). In data set [3], this compound registered a solubility (kinetic) at 24 h of 4 µg/mL (≈ 5.9 µM).
As to `C[C@H](Cn1cnc2c(N)ncnc21)OCP(=O)(NC(C)(C)C(=O)OCC1CC2(CCC2)C1)NC(C)(C)C(=O)OCC1CC2(CCC2)C1` (stereo partly drawn) [Example 50, Bis(spiro[3.3]heptan-2-ylmethyl) 2,2′-(((((1-(6-amino-9H-purin-9-yl)propan-2-yl)oxy)methyl)phosphoryl)bis(azanediyl))(R)-bis(2-methylpropanoate)], the CC50 at 5 days in data set [1] is 8060 nM; in data set [2], greater than 100 nM. The same compound registered an EC50 in the data set on HBV of 3.1 nM. This compound came in with a kinetic solubility at 24 h in data set [3] of less than 1 µg/mL.
`C[C@H](Cn1cnc2c(N)ncnc21)OCP(=O)(NC(C)(C)C(=O)OCC1CCCCCC1)NC(C)(C)C(=O)OCC1CCCCCC1` [Example 89, Bis(cycloheptylmethyl) 2,2′-(((((1-(6-amino-9H-purin-9-yl)propan-2-yl)oxy)methyl)phosphoryl)bis(azanediyl))(R)-bis(2-methylpropanoate)]: the results for the CC50 at 5 days in data set [1] and in data set [2] were 5100 nM and greater than 100 nM, respectively. Besides, in the data set on HBV, the concentration giving a half-maximal response (EC50) is 2.42 nM.
The corresponding values for `C[C@H](Cn1cnc2c(N)ncnc21)OCP(=O)(NC(C)(C)C(=O)OC[C@H]1CC[C@H](C)CC1)NC(C)(C)C(=O)OC[C@H]1CC[C@H](C)CC1` [Example 91, Bis((trans-4-methylcyclohexyl)methyl) 2,2′-((((((R)-1-(6-amino-9H-purin-9-yl)propan-2-yl)oxy)methyl)phosphoryl)bis(azanediyl))bis(2-methylpropanoate)] are 4920 nM, greater than 100 nM and 3.76 nM.
